Source: patent publication US11530217B1, “Antitubercular compounds” (priority 2022, dated 2022)
Converted amounts (≈) assume the structure as drawn.

Test system: rifampicin and isoniazid-resistant MTB strain (MDR-MTB)
Experiment: microbe, parasite or virus in culture
Type: cell-based
Details: Mycobacterium tuberculosis, 192 h, read-out: MIC (μg/mL) MDR-MTB

Row | SMILES | MIC [µg/mL]
1 | COC(=O)c1c(C(=O)OC)c2c(C)cc(C)cn2c1C(=O)c1ccc(OC)cc1 [Compound 5b, Dimethyl 3-(4-methoxybenzoyl)-6,8-dimethylindolizine-1,2-dicarboxylate] | 64 (≈ 162 µM)
2 | CCOC(=O)c1cc(C(=O)c2ccc(Cl)cc2)n2cc(C)cc(C)c12 [Compound 5c, Ethyl 3-(4-chlorobenzoyl)-6,8-dimethylindolizine-1-carboxylate] | 1 (≈ 2.81 µM)
3 | COC(=O)c1c(C(=O)OC)c2c(C)cc(C)cn2c1C(=O)c1ccc(Cl)cc1 [Compound 5d, Dimethyl 3-(4-chlorobenzoyl)-6,8-dimethylindolizine-1,2-dicarboxylate] | 64 (≈ 160 µM)
4 | CCOC(=O)c1cc(C(=O)c2ccc(F)cc2)n2cc(C)cc(C)c12 [Compound 5g, Ethyl 3-(4-fluorobenzoyl)-6,8-dimethylindolizine-1-carboxylate] | 4 (≈ 11.8 µM)
5 | CCOC(=O)c1cc(C(=O)c2ccccc2[N+](=O)[O-])n2cc(C)cc(C)c12 [Compound 5h, Ethyl 6,8-dimethyl-3-(2-nitrobenzoyl)indolizine-1-carboxylate] | 4 (≈ 10.9 µM)
6 | CCOC(=O)c1cc(C(=O)c2cc(C(F)(F)F)cc(C(F)(F)F)c2)n2cc(C)cc(C)c12 [Compound 5i, Ethyl 3-(3,5-bis(trifluoromethyl)benzoyl)-6,8-dimethylindolizine-1-carboxylate] | 16 (≈ 35 µM)
7 | CCOC(=O)c1cc(C(=O)c2ccc(C#N)cc2)n2cc(C)cc(C)c12 [Compound 5j, Ethyl 3-(4-cyanobenzoyl)-6,8-dimethylindolizine-1-carboxylate] | 4 (≈ 11.5 µM)
8 | CCOC(=O)c1cc(C(=O)c2ccc(C)cc2)n2cc(C)cc(C)c12 [Compound 5k, Ethyl 6,8-dimethyl-3-(4-methylbenzoyl)indolizine-1-carboxylate] | 4 (≈ 11.9 µM)
9 | COC(=O)c1c(C(=O)OC)c2c(C)cc(C)cn2c1C(=O)c1ccc(C#N)cc1 [Compound 5l, Dimethyl 3-(4-cyanobenzoyl)-6,8-dimethylindolizine-1,2-dicarboxylate] | 8 (≈ 20.5 µM)
10 | COC(=O)c1c(C(=O)OC)c2c(C)cc(C)cn2c1C(=O)c1ccc(C)cc1 [Compound 5m, Dimethyl 6,8-dimethyl-3-(4-methylbenzoyl)indolizine-1,2-dicarboxylate] | 1 (≈ 2.64 µM)
